Measurements from ChEMBL document CHEMBL5576147, “Development of Brain Penetrant Pyridazine Pantothenate Kinase Activators” (J Med Chem, 2024).

Experiments:
in vitro [1] = assay: in vitro; design: dose or concentration left out as unconfirmed; details: human, liver microsomes
in vitro [2] = assay: in vitro; design: dose or concentration left out as unconfirmed; details: mouse, liver microsomes

CLint scaled at 4 h (in vitro [1]): 175 mL/min/kg | CLint scaled at 4 h (in vitro [2]): 408 mL/min/kg
SMILES: CC(C)c1ccc(CC(=O)N2CCN(c3ccc(C#N)nn3)CC2)cc1
